Biological target: b-Raf(V600E) (Homo sapiens, UniProt P15056, V600E)
Experiment: Raf/Mek Amplified Luminescence Proximity Homogeneous Assay (Alpha Screen)
Assay type: biochemical
Details: b-Raf(V600E) approximately 4 pM; biotinylated Mek, kinase dead approximately 10 nM; ATP 10 μM; pre-incubation 60 minutes; reaction 3 hours at room temperature; read-out: mut-bRaf IC50
Method: Raf/Mek Amplified Luminescence Proximity Homogeneous Assay
Assay buffer: 50 mM Tris, pH 7.5, 15 mM MgCl2, 0.01% Bovine Serum Albumin (BSA), 1 mM dithiothreitol (DTT) Stop buffer: 60 mM ethylenediaminetetraacetic acid (EDTA), 0.01% Tween® 20 Bead buffer: 50 mM Tris, pH 7.5, 0.01% Tween® 20 […]
biotinylated Mek, kinase dead
Alpha Screen detection kit (available from PerkinElmer™, #6760617R)
Anti phospho-MEK1/2 (available from Cell Signaling Technology, Inc. #9121) 384 well assay plates (White Greiner® plates, #781207) […]
b-Raf(V600E) approximately 4 pM […]
biotinylated Mek, Kinase dead approximately 10 nM
Pre-incubation time with compounds 60 minutes at room temperature
Reaction time 1 or 3 hours at room temperature
Raf and biotinylated Mek, kinase dead, were combined at 2× final concentrations in assay buffer (50 mM Tris, pH 7.5, 15 mM MgCl2, 0.01% BSA and 1 mM DTT) and dispensed 10 μl per well in assay plates (Greiner white 384 well assay plates #781207) containing 0.5 μl of 40× of a raf kinase inhibitor test compound diluted in 100% DMSO. The plate was incubated for 60 minutes at room temperature.
The Raf kinase activity reaction was started by the addition of 10 μL per well of 2×ATP diluted in assay buffer. After 3 hours (bRaf(V600E)) or 1 hour (c-Raf), the reactions were stopped with the addition of 10 μL of stop reagent (60 mM EDTA). Phosphorylated product was measured using a rabbit anti-p-MEK (Cell Signaling, #9121) antibody and the Alpha Screen IgG (ProteinA) detection Kit (PerkinElmer #6760617R), by the addition of 30 μL to the well of a mixture of the antibody (1:2000 dilution) and detection beads (1:2000 dilution of both beads) in bead buffer (50 mM Tris, pH 7.5, 0.01% Tween20). The additions were carried out under dark conditions to protect the detection beads from light. A lid was placed on top of the plate and incubated for 1 hour at room temperature, then the luminescence was read on a PerkinElmer Envision instrument. The concentration of each compound for 50% inhibition (IC50) was calculated by non-linear regression using XL Fit data analysis software.

Chain of b-Raf(V600E) (P15056 whole entry V600E): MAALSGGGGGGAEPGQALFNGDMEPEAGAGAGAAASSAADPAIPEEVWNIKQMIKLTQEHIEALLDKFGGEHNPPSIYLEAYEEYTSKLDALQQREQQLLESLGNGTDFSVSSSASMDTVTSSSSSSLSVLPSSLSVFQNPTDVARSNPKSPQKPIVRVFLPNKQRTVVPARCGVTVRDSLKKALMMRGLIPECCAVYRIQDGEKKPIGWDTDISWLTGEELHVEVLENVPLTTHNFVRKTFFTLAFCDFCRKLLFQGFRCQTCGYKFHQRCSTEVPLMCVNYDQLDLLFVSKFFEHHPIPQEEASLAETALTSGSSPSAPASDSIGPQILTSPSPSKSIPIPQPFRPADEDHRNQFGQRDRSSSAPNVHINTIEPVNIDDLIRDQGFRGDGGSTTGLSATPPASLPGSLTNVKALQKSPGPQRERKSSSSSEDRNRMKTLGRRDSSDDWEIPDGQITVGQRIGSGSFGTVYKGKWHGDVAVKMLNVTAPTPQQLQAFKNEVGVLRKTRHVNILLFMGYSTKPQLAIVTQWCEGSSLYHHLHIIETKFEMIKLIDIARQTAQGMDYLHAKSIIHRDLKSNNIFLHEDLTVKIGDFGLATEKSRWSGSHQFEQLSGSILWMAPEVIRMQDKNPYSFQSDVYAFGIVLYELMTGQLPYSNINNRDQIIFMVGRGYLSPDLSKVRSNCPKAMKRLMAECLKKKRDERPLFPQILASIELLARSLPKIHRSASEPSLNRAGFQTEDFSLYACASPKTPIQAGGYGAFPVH

IC50 [nM] | SMILES
0.46 | CNc1nccc(-c2sc(C3CC3)nc2-c2cc(Cl)cc(NS(C)(=O)=O)c2Cl)n1 [Example 54]
0.42 | COC(=O)N[C@@H](C)CNc1nccc(-c2sc(C3CC3)nc2-c2cccc(NS(C)(=O)=O)c2Cl)n1 [Example 33]
0.35 | CS(=O)(=O)Nc1cc(Cl)cc(-c2nc(C3CC3)oc2-c2ccnc(N)n2)c1Cl [Example 58]
1.5 | CNc1nccc(-c2oc(C3CC3)nc2-c2cc(Cl)cc(NS(C)(=O)=O)c2Cl)n1 [Example 59]
28 | CCCS(=O)(=O)Nc1cccc(-c2nc(C3CC3)oc2-c2ccnc(NC)n2)c1F [Example 6, N-(3-(2-cyclopropyl-5-(2-(methylamino)pyrimidin-4-yl)oxazol-4-yl)-2-fluorophenyl)propane-1-sulfonamide]
0.43 | COC(=O)N[C@@H](C)CNc1nccc(-c2sc(C(C)(C)C)nc2-c2cccc(NS(C)(=O)=O)c2F)n1 [Example 36]
3.4 | CCCS(=O)(=O)Nc1cccc(-c2nc(C3CC3)sc2-c2ccnc(N)n2)c1Cl [Example 29]
0.56 | CCCS(=O)(=O)Nc1cc(Cl)cc(-c2nc(C3CC3)oc2-c2ccnc(NC[C@H](C)NC(=O)OC)n2)c1Cl [Example 57]
46 | CC(C)(C)c1nc(-c2cccc(NS(C)(=O)=O)c2Cl)c(-c2ccnc(N)n2)s1 [Example 24]
0.12 | CCCS(=O)(=O)Nc1cccc(-c2nc(C3CC3)sc2-c2ccnc(NC[C@H](C)NC(=O)OC)n2)c1F [Example 40]
3.3 | CS(=O)(=O)Nc1cc(Cl)cc(-c2nc(C3CC3)oc2-c2ccnc(N)n2)c1F [Example 22]
0.32 | COC(=O)N[C@@H](C)CNc1nccc(-c2sc(C(C)(C)C)nc2-c2cccc(NS(C)(=O)=O)c2Cl)n1 [Example 25]
0.12 | COC(=O)N[C@@H](C)CNc1nccc(-c2sc(C3CC3)nc2-c2cc(Cl)cc(NS(C)(=O)=O)c2F)n1 [Example 4, (S)-methyl 1-(4-(4-(5-chloro-2-fluoro-3-(methylsulfonamido)phenyl)-2-cyclopropylthiazol-5-yl)pyrimidin-2-ylamino)propan-2-ylcarbamate]
0.28 | COC(=O)N[C@@H](C)CNc1nccc(-c2sc(C3CC3)nc2-c2cc(Cl)cc(NS(C)(=O)=O)c2Cl)n1 [Example 55]
0.65 | CCCS(=O)(=O)Nc1cccc(-c2nc(C(C)(C)C)sc2-c2ccnc(N)n2)c1Cl [Example 26]
0.62 | CCCS(=O)(=O)Nc1cccc(-c2nc(C(C)(C)C)sc2-c2ccnc(NC[C@H](C)NC(=O)OC)n2)c1F [Example 34]
0.24 | CCCS(=O)(=O)Nc1cc(Cl)cc(-c2nc(C3CC3)sc2-c2ccnc(NC[C@H](C)NC(=O)OC)n2)c1Cl [Example 52]
0.59 | CCCS(=O)(=O)Nc1cccc(-c2nc(C3CC3)oc2-c2ccnc(NC[C@H](C)NC(=O)OC)n2)c1F [Example 38]
1.5 | COC(=O)N[C@@H](C)CNc1nccc(-c2oc(C3CC3)nc2-c2cc(F)cc(NS(C)(=O)=O)c2Cl)n1 [Example 19]
18 | CNc1nccc(-c2oc(C3CC3)nc2-c2cc(Cl)cc(NS(C)(=O)=O)c2F)n1 [Example 23]
0.14 | CCCS(=O)(=O)Nc1cc(F)cc(-c2nc(C(C)(C)C)sc2-c2ccnc(NC)n2)c1Cl [Example 8]
6 | CNc1nccc(-c2sc(C(C)(C)C)nc2-c2cc(F)cc(NS(C)(=O)=O)c2Cl)n1 [Example 11]
5 | CCCS(=O)(=O)Nc1cccc(-c2nc(C3CC3)sc2-c2ccnc(NC)n2)c1F [Example 37]
18 | CNc1nccc(-c2oc(C3CC3)nc2-c2cc(F)cc(NS(C)(=O)=O)c2Cl)n1 [Example 18]
44 | CNc1nccc(-c2sc(C(C)(C)C)nc2-c2cccc(NS(C)(=O)=O)c2Cl)n1 [Example 27]
0.058 | CCCS(=O)(=O)Nc1cc(Cl)cc(-c2nc(C3CC3)sc2-c2ccnc(N)n2)c1F [Example 66]
17 | CS(=O)(=O)Nc1cccc(-c2nc(C3CC3)oc2-c2ccnc(N)n2)c1Cl [Example 45]
0.14 | CCCS(=O)(=O)Nc1cc(F)cc(-c2nc(C(C)(C)C)sc2-c2ccnc(N)n2)c1Cl [Example 9]

IC50 [nM] | SMILES
0.13 | CCCS(=O)(=O)Nc1cc(F)cc(-c2nc(C3CC3)sc2-c2ccnc(N)n2)c1Cl [Example 13]
0.091 | CCCS(=O)(=O)Nc1cc(F)cc(-c2nc(C3CC3)sc2-c2ccnc(NC)n2)c1Cl [Example 14]
1.2 | CCCS(=O)(=O)Nc1cccc(-c2nc(C3CC3)oc2-c2ccnc(N)n2)c1Cl [Example 30]
0.33 | CCCS(=O)(=O)Nc1cc(F)cc(-c2nc(C(C)(C)C)sc2-c2ccnc(NC[C@H](C)NC(=O)OC)n2)c1Cl [Example 10]
0.7 | CCCS(=O)(=O)Nc1cc(Cl)cc(-c2nc(C(C)(C)C)sc2-c2ccnc(NC[C@H](C)NC(=O)OC)n2)c1Cl [Example 48]
5.8 | CS(=O)(=O)Nc1cc(Cl)cc(-c2nc(C3CC3)sc2-c2ccnc(N)n2)c1F [Example 21]
0.95 | CS(=O)(=O)Nc1cccc(-c2nc(C3CC3)oc2-c2ccnc(NCCC#N)n2)c1Cl [Example 46]
3 | CNc1nccc(-c2sc(C3CC3)nc2-c2cc(Cl)cc(NS(C)(=O)=O)c2F)n1 [Example 20]
0.46 | COC(=O)N[C@@H](C)CNc1nccc(-c2oc(C3CC3)nc2-c2cc(Cl)cc(NS(C)(=O)=O)c2Cl)n1 [Example 60]
2.1 | CCCS(=O)(=O)Nc1cccc(-c2nc(C3CC3)oc2-c2ccnc(N)n2)c1F [Example 39]
0.022 | CCCS(=O)(=O)Nc1cc(Cl)cc(-c2nc(C3CC3)oc2-c2ccnc(N)n2)c1Cl [Example 56]
0.65 | CNc1nccc(-c2sc(C(C)(C)C)nc2-c2cc(Cl)cc(NS(C)(=O)=O)c2F)n1 [Example 61]
15 | CS(=O)(=O)Nc1cc(F)cc(-c2nc(C3CC3)sc2-c2ccnc(N)n2)c1Cl [Example 16]
0.22 | COC(=O)N[C@@H](C)CNc1nccc(-c2sc(C3CC3)nc2-c2cc(F)cc(NS(C)(=O)=O)c2Cl)n1 [Example 3, (S)-methyl 1-(4-(4-(2-chloro-5-fluoro-3-(methylsulfonamido)phenyl)-2-cyclopropylthiazol-5-yl)pyrimidin-2-ylamino)propan-2-ylcarbamate]
0.044 | CCCS(=O)(=O)Nc1cc(Cl)cc(-c2nc(C3CC3)oc2-c2ccnc(N)n2)c1F [Example 63]
0.25 | COC(=O)N[C@@H](C)CNc1nccc(-c2sc(C(C)(C)C)nc2-c2cc(F)cc(NS(C)(=O)=O)c2Cl)n1 [Example 1, (S)-methyl 1-(4-(2-tert-butyl-4-(2-chloro-5-fluoro-3-(methylsulfonamido)phenyl)thiazol-5-yl)pyrimidin-2-ylamino)propan-2-ylcarbamate]
2.7 | CS(=O)(=O)Nc1cc(F)cc(-c2nc(C3CC3)oc2-c2ccnc(N)n2)c1Cl [Example 17]
1.1 | CCCS(=O)(=O)Nc1cccc(-c2nc(C(C)(C)C)sc2-c2ccnc(NC)n2)c1Cl [Example 28]
0.44 | CCCS(=O)(=O)Nc1cc(F)cc(-c2nc(C(C)(C)C)sc2-c2ccncn2)c1Cl [Example 2, N-(3-(2-tert-butyl-5-(pyrimidin-4-yl)thiazol-4-yl)-2-chloro-5-fluorophenyl)propane-1-sulfonamide]
1.8 | CCCS(=O)(=O)Nc1cccc(-c2nc(C(C)(C)C)sc2-c2ccnc(N)n2)c1F [Example 35]
0.13 | CCCS(=O)(=O)Nc1cc(Cl)cc(-c2nc(C(C)(C)C)sc2-c2ccnc(N)n2)c1Cl [Example 47]
62 | CCCNc1nccc(-c2oc(C3CC3)nc2-c2cccc(NS(C)(=O)=O)c2Cl)n1 [Example 43]
44 | CS(=O)(=O)Nc1cccc(-c2nc(C3CC3)sc2-c2ccnc(N)n2)c1Cl [Example 32]
1.3 | COC(=O)N[C@@H](C)CNc1nccc(-c2oc(C3CC3)nc2-c2cccc(NS(C)(=O)=O)c2Cl)n1 [Example 44]
0.28 | CCCS(=O)(=O)Nc1cc(Cl)cc(-c2nc(C3CC3)oc2-c2ccnc(NC)n2)c1F [Example 62]
0.22 | CCCS(=O)(=O)Nc1cccc(-c2nc(C(C)(C)C)sc2-c2ccnc(NC[C@H](C)NC(=O)OC)n2)c1Cl [Example 7, (S)-methyl 1-(4-(2-tert-butyl-4-(2-chloro-3-(propylsulfonamido)phenyl)thiazol-5-yl)pyrimidin-2-ylamino)propan-2-ylcarbamate]
3.1 | COCC(=O)N[C@@H](C)CNc1nccc(-c2oc(-c3ccc(F)cc3)nc2-c2cc(C)cc(NS(C)(=O)=O)c2Cl)n1 [Example 42]

Reference: patent publication US20130096149A1, “HETEROARYL COMPOUNDS AND COMPOSITIONS AS PROTEIN KINASE INHIBITORS” (NOVARTIS AG, priority 2010, published 2013)
